Test results taken from article PMC3433414, “Oral Administration of the Pimelic Diphenylamide HDAC Inhibitor HDACi 4b Is Unsuitable for Chronic Inhibition of HDAC Activity in the CNS In Vivo” (PLoS ONE, 2012).

Assays:
R6/2 mice = conditions: cited from earlier work
[1] = tested on: histone acetylation in mouse brain; assay: Histone acetylation in brain tissue (central pharmacodynamics); conditions: 200 mg/kg sc; positive control
Procedure: Cortical tissue from the mice was assessed using specific antibodies for increases in acetylation of specific lysine residues on Histones H3 (H3K4, H3K9, H3K14) and H4 (H4K5) as well as global acetylation of H3 (Ac-H3) and H4 (Ac-H4). The acetylation level was normalized to total H3 and H4 expression level. The samples from the rest of the brain were analyzed for terminal 4b levels at the time of sacrifice. […] Mouse brains were harvested, dissected, immediately frozen in liquid nitrogen and stored at −80°C. Mouse brain tissue was homogenized (polytron homogenizer, 20 s) in 2 volumes of histone extraction buffer (1×PBS, 5% Triton X-100 (v/v), 3 mM DTT, 1 mM orthovanadate, 5 mM NaF, 1 mM PMSF, 5 mM Na Butyrate, Roche complete protease inhibitor tablet) and centrifuged at 900 g for 8 min at 4°C. The resulting pellet was washed twice in 1 ml of histone extraction buffer before being re-suspended in 2–3 volumes of 0.2 M HCl. Samples were then vortexed briefly and left to shake vigorously for 3 h at 4°C using a VXR Vibrax 1.5 ml polypropylene tube shaker (IKA). After shaking, samples were centrifuged at 900 g for 8 min at 4°C and the resulting supernatant was retained and neutralized with 0.2 volumes of 1 M NaOH.

[2] = dissolved upon heating; room temperature; cited from earlier work

O=C(CCCCCCC(=O)Nc1ccccc1)NO [SAHA]
motor dysfunction (rotarod performance, grip strength) (R6/2 mice; drinking water): significant improvement in motor dysfunction | maximum tolerated dose (R6/2 mice; in drinking water): 0.67 g/L | histone acetylation in cortical tissue [1]: robust enhancement of acetylation of H3K9, H4K5, and total acetylated levels of H3 and H4 | stability in cyclodextrins [2]: stable for seven days
